The test system of test [1] is HT-29. Description: Antiproliferative MTT assay, HT-29 colon cancer cells. It counts as cell-based, human. The protocol: (§1) The antiproliferative activities of the cinnamyl and benzodioxyl derivatives were assessed against six human cell lines of three different types of cancer (colon, lung, and breast) using the 3-(4,5-dimethylthiazol-2-yl)-2,5-diphenyltetrazolium bromide (MTT) assay at seven concentrations for 48 h. The results are expressed as the IC50 values and are outlined in Table 1.
(§2) The cell lines were obtained from the American Type Culture Collection (ATCC). All the cancer cell lines (HT-29, HCT-116, H1299, HTB-54, MDA-MB-231 and MCF-7) and the nontumorigenic cells (184B5) were maintained in RPMI 1640 medium (Gibco), supplemented with 10% fetal bovine serum (FBS; Gibco) and 1% antibiotics (10.00 units/mL penicillin and 10.00 mg/mL streptomycin; Gibco). Cells were preserved in tissue culture flasks at 37 °C and 5% CO2. Culture medium was replaced every three days.
(§3) The cytotoxic effect of each compound was initially tested at seven different concentrations ranging between 0.5 and 100 µM in the cell lines mentioned above. The cells were seeded (1 × 10^4 cells per well) in 96-well plates and incubated at 37 °C and 5% CO2 for 24 h. After attachment, cells were treated with either dimethyl sulfoxide (DMSO) or increasing concentrations of the corresponding selenocompound for 48 h. The effect of the compounds on cell viability was determined by the MTT assay. In brief, 20 µL of MTT (5 mg/mL) was added to each well 2.5 h prior to experiment termination. At the end of the incubation, the medium was removed, and the formazan crystals were dissolved in 50 µL of DMSO. Absorbance was measured at 550 nm on a microplate reader. IC50 values were calculated using OriginPro 8.5.1. software by nonlinear curve fitting. Selectivity indexes were calculated as the ratio of the IC50 values determined for the nonmalignant and the tumoral cells in the breast cell lines (IC50 (184B5)/IC50 (MDA-MB-231) and IC50 (184B5)/IC50 (MCF-7)). Data were obtained from at least three independent experiments performed in triplicates.
(In general: Tetrazolium dyes change colour on reduction, which living cells bring about.)

Test [2] has as its system HCT-116. Put plainly: Antiproliferative MTT assay, HCT-116 colon cancer cells. It counts as cell-based, human. As to the method: as §1, §2, §3
For test [3], the system named is MDA-MB-231. Description: Antiproliferative MTT assay, MDA-MB-231 breast cancer cells. It counts as cell-based, human. As to the method: as §1, §2, §3
Test [4] has as its system Leishmania major promastigotes. Description: Parasite viability MTT assay, L. major promastigotes. It counts as cell-based. The note with it: 48 h. As to the method: The cytotoxic activities of all the derivatives against Leishmania major and Leishmania infantum promastigotes were studied by the MTT assay after exposing the parasites to five different concentrations of each compound for 48 h. Miltefosine and paromomycin, two currently available drugs for the treatment of leishmaniasis, were used as positive controls.
L. major (clone VI, MHOM/IL/80/Friendlin) and L. infantum (BCN-150) promastigotes were grown in continuous stirred M199 1X medium (Sigma, St Louis, MO, USA) at 26 °C supplemented with 25 mM HEPES (pH 7.2), 10% heat-inactivated FBS (Gibco, Gaithersburg, MD, USA), 0.1 mM adenine, 0.0005% (w/v) hemin, 0.0001% (w/v) biotin, 100 UI/mL penicillin and […] streptomycin (Gibco, Gaithersburg, MD, USA). Media were changed before each experiment to achieve exponential growth.
The antileishmanial activity was assessed by the MTT assay as previously described. Briefly, 3 × 10^6 promastigotes of both Leishmania strains were placed into a 96-well plate with supplemented M199 1X medium during their logarithmic growth phase. The parasites were treated with five increasing concentrations of the compounds ranging between 0.1 and 1000 µM at 26 °C for 48 h. At the termination point, 20 µL of MTT (5 mg/mL) was added and further incubated for 4 h. The resultant formazan crystals formed were dissolved in 80 µL of DMSO and the absorbance was measured at 550 nm on a microplate reader. IC50 values were calculated using OriginPro 8.5.1. software by nonlinear curve fitting. Miltefosine and paromomycin were used as reference drugs. Data were obtained from at least three independent experiments performed in triplicates.

The subject of test [5] is C. freundii. Put plainly: MIC and MBC assay, C. freundii. The test is classed as cell-based, Citrobacter freundii. The note with it: for MIC / MBC: Citrobacter freundii; for MIC: read-out: MIC C. freundii; for MBC: read-out: MBC C. freundii. As to the method: (§4) The minimum inhibitory concentration (MIC) and the minimum bactericidal concentration (MBC) values of the selenocompounds were determined in a panel of six bacterial strains as a first approach to assess their antibacterial activity. Thus, the synthesized derivatives were tested against the Gram-negative bacteria Escherichia coli (E. coli), Klebsiella pneumoniae (K. pneumoniae) and Citrobacter freundii (C. freundii); and the Gram-positive bacteria Staphylococcus aureus (S. aureus), Streptococcus faecalis (S. faecalis), and Staphylococcus epidermidis (S. epidermidis). […]
(§5) All the selenocompounds were screened for their in vitro inhibitory activity against three Gram-negative (E. coli, K. pneumoniae and C. freundii) and three Gram-positive (S. aureus, S. faecalis and S. epidermidis) bacteria. Bacterial strains were kindly provided by the Department of Microbiology and Parasitology of the University of Navarra. The bacterial cells were grown in tryptic soy agar (TSA) plates and maintained at 4 °C.
(§6) The compounds were firstly dissolved in DMSO and serially diluted in a 96-well plate in tryptic soy broth (TSB) with eleven concentrations ranging from 400 µg/mL to 0.4 µg/mL with a final volume of 100 µL. Subsequently, 100 µL of a diluted suspension of bacterial cells with an optical density of 0.125 measured at 600 nm in TSB (inoculum of approximately 10^5 CFU/mL) was added to each well and incubated at 37 °C for 24 h. After the incubation period, each well was analyzed for the presence or absence of visual growth of bacterial cells. The lowest concentration of the test compound at which no visible growth occurred was determined as the MIC values. After incubation, 10 µL of the bacterial suspension from each well that presented antibacterial activity was added to divided TSA plates and incubated at 37 °C overnight.

For test [6], the system named is S. faecalis. Put plainly: MIC and MBC assay, S. faecalis. The test is classed as cell-based, Streptococcus faecalis. To be noted: for MIC / MBC: Enterococcus faecalis; for MIC: read-out: MIC S. faecalis; for MBC: read-out: MBC S. faecalis. As to the method:
as §4, §5, §6

Test [7] has as its system S. epidermidis. Put plainly: MIC and MBC assay, S. epidermidis. It counts as cell-based, Staphylococcus epidermidis. The note with it: for MIC / MBC: Staphylococcus epidermidis; for MIC: read-out: MIC S. epidermidis; for MBC: read-out: MBC S. epidermidis. As to the method: as §4, §5, §6
The mark [8] stands for this setting: Homo sapiens, HT-29, 48 h, MTT assay, 48 h, mean ± SD, read-out: IC50 HT-29.
The mark [9] stands for this setting: MTT assay, 48 h, mean ± SD, read-out: IC50 HT-29.
The mark [10] stands for this setting: Homo sapiens, HCT-116, 48 h, MTT assay, 48 h, mean ± SD, read-out: IC50 HCT-116.
[11] abbreviates: MTT assay, 48 h, mean ± SD, read-out: IC50 HCT-116.
Where [12] appears, read: Homo sapiens, MDA-MB-231, MTT assay, 48 h, mean ± SD, read-out: IC50 MDA-MB-231.
Setting [13] is: Leishmania major, promastigotes, MTT assay, mean ± SD, read-out: IC50 Leishmania major.
The mark [14] stands for this setting: MTT assay, 48 h, mean ± SD, read-out: IC50 MDA-MB-231.
[15] abbreviates: promastigotes, MTT assay, mean ± SD, read-out: IC50 Leishmania major.

This note sets out measurements from PMC9656702, “Unveiling a New Selenocyanate as a Multitarget Candidate with Anticancer, Antileishmanial and Antibacterial Potential” (Molecules, 2022).

≈ marks a conversion by molar mass, not a printed value. Where two headings read alike, the source gives them in different places.

The term IC50 denotes the concentration that gives 50% inhibition. For orientation: MIC means the least concentration at which growth counts as inhibited. One may read the MBC as the lowest tested concentration that kills the bacteria rather than only halting them. In the case of `N#C[Se]C/C=C/c1ccccc1` [Compound 1a, (E)-(3-selenocyanatoprop-1-en-1-yl)benzene], the concentration for half-maximal inhibition (IC50) in test [1] (Homo sapiens, HT-29, 48 h, read-out: IC50 HT-29, MTT assay, 48 h, mean ± SD) is > 50 µM; in test [1] (read-out: IC50 HT-29, MTT assay, 48 h, mean ± SD), 61.2 ± 9.7 µM; in test [2] (Homo sapiens, HCT-116, 48 h, read-out: IC50 HCT-116, MTT assay, 48 h, mean ± SD), > 50 µM; in test [2] (read-out: IC50 HCT-116, MTT assay, 48 h, mean ± SD), 68.8 ± 6.3 µM; in test [3] (Homo sapiens, MDA-MB-231, 48 h, read-out: IC50 MDA-MB-231, MTT assay, 48 h, mean ± SD), > 50 µM; in test [3] (read-out: IC50 MDA-MB-231, MTT assay, 48 h, mean ± SD), 71 ± 10.3 µM. Moreover, the IC50 in test [4] (Leishmania major, read-out: IC50 Leishmania major, promastigotes, MTT assay, 48 h, mean ± SD) is < 5 µM; in test [4] (read-out: IC50 Leishmania major, promastigotes, MTT assay, mean ± SD), 4.6 ± 1.7 µM. Further, the MIC turned out to be 100 µg/mL (≈ 450 µM) in test [5] (24 h), 50 µg/mL (≈ 225 µM) in test [6] (24 h) and 12.5 µg/mL (≈ 56.3 µM) in test [7] (24 h). In addition, the MBC in test [5] is 100 µg/mL (≈ 450 µM); in test [6] it was > 200 µg/mL; in test [7], 12.5 µg/mL (≈ 56.3 µM). The “MBC S. faecalis” value in test [6] (Gram-positive) is recorded as “no bactericidal effect was observed”.
As to `C(=C\c1ccccc1)/C[Se][Se]C/C=C/c1ccccc1` [Compound 1b, 1,2-Dicinnamyldiselenide], the IC50 in test [1] (setting [8]) was < 40 µM; in test [1] (setting [9]) it was 36 ± 5.4 µM; in test [2] (setting [10]), < 40 µM; in test [2] (setting [11]) it was 36.6 ± 6.7 µM; in test [3] (setting [12]), 56.3 ± 5.3 µM; in test [4] (setting [13]) it was 47.6 ± 16 µM. In addition, the MIC in test [5] (Gram-negative, 24 h at 37 °C) was > 200 µg/mL; in test [6] (Gram-positive, 24 h at 37 °C), > 200 µg/mL; in test [7] (Gram-positive, 24 h at 37 °C) it was > 200 µg/mL.
In the case of `O=C(CC[Se]CC=Cc1ccccc1)[c-]1cccc1.[Fe+2].c1cc[cH-]c1` [Compound 1c, 3-(Cinnamylselanyl)-1-ferrocenylpropan-1-one], the 50% inhibitory concentration (IC50) in test [1] (setting [9]) is > 100 µM; in test [2] (setting [11]), > 100 µM; in test [3] (setting [14]), 32.1 ± 3 µM; in test [4] (setting [15]), 25.8 ± 2.7 µM. For the same compound, in test [5] (Gram-negative, 24 h at 37 °C), the “MIC C. freundii” value is >200 µg/mL. Besides, in test [6] (Gram-positive, 24 h at 37 °C), the “MIC S. faecalis” value was >200 µg/mL. The “MIC S. epidermidis” value in test [7] (Gram-positive, 24 h at 37 °C) is >200 µg/mL.
As for `N#C[Se]Cc1ccc2c(c1)OCO2` [Compound 2a, 5-(Selenocyanatomethyl)benzo[d][1,3]dioxole], the half-inhibitory concentration (IC50) was < 12 µM in test [1] (setting [8]); 11.9 ± 3.4 µM in test [1] (setting [9]); 69.7 ± 5.3 µM in test [2] (setting [10]); 43.8 ± 5.7 µM in test [3] (setting [12]); < 5 µM in test [4] (setting [13]); 3.3 ± 0.9 µM in test [4] (setting [15]). Also, the minimum inhibitory concentration (MIC) in test [5] (Gram-negative, 24 h at 37 °C) amounted to 100 µg/mL (≈ 416 µM); in test [6] (Gram-positive, 24 h at 37 °C), 25 µg/mL (≈ 104 µM); in test [7] (Gram-positive, 24 h at 37 °C), 12.5 µg/mL (≈ 52.1 µM). The values for the minimum bactericidal concentration (MBC) in test [5] (Gram-negative), in test [6] (Gram-positive) and in test [7] (Gram-positive) were 100 µg/mL (≈ 416 µM), > 200 µg/mL and 12.5 µg/mL (≈ 52.1 µM), respectively. Moreover, in test [6] (Gram-positive), the “MBC S. faecalis” value is given as “no bactericidal effect was observed”. In addition, the “MIC S. faecalis” value in test [6] (Gram-positive, 24 h at 37 °C) is ≤ 25 µg/mL. For the same compound, the “MIC S. epidermidis” value in test [7] (Gram-positive, 24 h at 37 °C) was ≤ 25 µg/mL.
As to `O=C(CC[Se]Cc1ccc2c(c1)OCO2)[c-]1cccc1.[Fe+2].c1cc[cH-]c1` [Compound 2c, 3-((Benzo[d][1,3]dioxol-5-ylmethyl)selanyl)-1-ferrocenylpropan-1-one], the IC50 in test [1] (setting [9]) is 21.4 ± 4.3 µM; in test [2] (setting [11]) it was > 100 µM; in test [3] (setting [14]), 30.9 ± 1.3 µM; in test [4] (setting [15]), 11.2 ± 3 µM. The “MIC C. freundii” value in test [5] (Gram-negative, 24 h at 37 °C) is >200 µg/mL. Also, in test [6] (Gram-positive, 24 h at 37 °C), the “MIC S. faecalis” value is >200 µg/mL. In addition, the “MIC S. epidermidis” value in test [7] (Gram-positive, 24 h at 37 °C) is >200 µg/mL.
